Results taken from patent publication US20060194814A1, “Benzamide compounds” (priority 2003, published 2006).
Counter-ions that a name gives are not always drawn.

Assays:
PKA = test: dbcAMP-stimulated PKA activity (PepTag assay) in Y1 cells; type: cell-based, mouse; parameters: dose or concentration left out as unconfirmed
Experimental: Y1 cells were cultured in 6-well plates (2×10^5 cells per well) and treated as described above for steroid biosynthesis. At the end of the incubation, cells were washed twice with PBS and proteins were extracted using an extraction buffer (25 mM tris-HCl, pH 7.4, 0.5 mM EDTA, 0.5 mM EGTA, 10 mM -mercaptoethanol, 0.5 mM PMSF, 1 g/ml leupeptin, and 1 g/ml aprotinin). After centrifugation at 18,500 g for 15 minutes, the supernatants were kept for PKA activity assay. Samples were processed using the PepTag assay for non-radioactive detection of PKA activity following the manufacturer's recommendations (Promega Corporation, Madison, Wis.).

HIV-1 IIIB strain = test: HIV-1 IIIB replication in HeLa cells, 48 hours pre-medication; type: cell-based; details: 48 hours pretreatment; all concentrations tested
HMG-CoA reductase = biological target: T1, HMG-CoA reductase (Mus musculus, UniProt Q01237); test: Direct effect on HMG-CoA reductase activity in sonicated Y1 cell homogenates; type: biochemical; details: sonicated Y1 cells
T1 construct: endogenous in cells; host or cells: Y1 mouse adrenal tumor cells
T1 sequence (Q01237 1-887): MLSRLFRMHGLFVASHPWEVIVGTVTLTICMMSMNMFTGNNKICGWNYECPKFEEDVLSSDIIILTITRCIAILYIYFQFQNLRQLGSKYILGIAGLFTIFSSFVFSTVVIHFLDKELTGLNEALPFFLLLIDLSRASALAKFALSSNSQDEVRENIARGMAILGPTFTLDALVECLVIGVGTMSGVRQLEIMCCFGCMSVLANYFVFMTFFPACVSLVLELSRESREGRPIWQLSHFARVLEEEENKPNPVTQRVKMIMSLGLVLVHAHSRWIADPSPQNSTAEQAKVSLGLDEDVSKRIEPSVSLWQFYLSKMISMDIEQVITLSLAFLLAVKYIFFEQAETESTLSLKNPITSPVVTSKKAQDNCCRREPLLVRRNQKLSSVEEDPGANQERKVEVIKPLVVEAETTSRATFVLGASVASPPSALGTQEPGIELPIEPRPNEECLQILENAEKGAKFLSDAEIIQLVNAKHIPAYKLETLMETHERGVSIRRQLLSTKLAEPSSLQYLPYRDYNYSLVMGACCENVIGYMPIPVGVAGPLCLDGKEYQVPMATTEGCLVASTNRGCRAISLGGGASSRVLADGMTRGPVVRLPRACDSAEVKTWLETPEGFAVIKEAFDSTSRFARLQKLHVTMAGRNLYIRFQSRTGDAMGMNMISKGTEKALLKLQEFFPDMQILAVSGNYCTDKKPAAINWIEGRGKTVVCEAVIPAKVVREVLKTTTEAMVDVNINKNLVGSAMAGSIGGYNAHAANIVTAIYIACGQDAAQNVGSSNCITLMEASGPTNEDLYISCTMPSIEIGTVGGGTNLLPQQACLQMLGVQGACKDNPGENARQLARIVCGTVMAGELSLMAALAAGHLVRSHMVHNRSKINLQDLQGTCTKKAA
Experimental: Cells were washed twice with ice-cold PBS and incubated with ice-cold assay buffer (0.1M sucrose, 40 mM KH2PO4, 30 mM EDTA, 50 mM KCl, 5 mM DTT, 0.25% (v/v) of Brij 96, at pH 7.4) on ice for 20 minutes. After centrifugation for 3 minutes at 14000 g (4° C.) the supernatants were collected and used for HMG-CoA reductase activity assay. The total 150 l assay mixture contained 100-200 g protein and the NADPH-generating system (2.5 mM NADP, 20 mM glucose 6-phosphate and 20 U/ml glucose 6-phosphate dehydrogenase). The reaction was started by adding substrate (^14C-HMG-CoA, 0.1 Ci) and stopped after 45 minutes by adding 10-1 of HCl 6M. ^3H-mevalonolactone was also added to the samples as an extraction recovery marker. After an additional 30 minutes incubation time, to allow complete lactonization of the product, the mixture was centrifuged. The supernatant was applied to Bond-Elut NH2 column and eluted with 1 ml of toluene/acetone (3:1). The eluate was discarded and further 4 ml of toluene/acetone was applied to the column and collected in a scintillation vial for counting ^14C-mevalonate and ^3H-mevalonolactone signals (Berkhout et al., 1990).
In separate experiments cells were disrupted by sonication and then treated with procaine. The direct effect of the treatment on HMG-CoA reductase activity in the homogenates was determined as described above.

[1] = test system: MA-10 mouse Leydig tumor cells; type: cell-based
Experimental: Cell viability at the end of the incubation protocol described above was assessed using the mitochondrial integrity 3-(4,5-dimethylthiazol-2-yl)-2,5-diphenyl tetrazolium bromide (MTT) assay (Trevigen, Gaithersburg, Md.). Briefly, 10 l of the MTT solution were added to the cells in 100 l medium. After an incubation period of 4 hours, 100 l of detergent were added and cells were incubated overnight at 37° C. Formazan blue formation was quantified at 600 nm and 690 nm using the Victor quantitative detection spectrophotometer (EGG-Wallac, Gaithersburg, Md.) and the results expressed as (OD600-OD690).

[2] = test system: MA-10 mouse Leydig tumor cells; test: dbcAMP-induced progesterone synthesis in MA-10 cells; type: cell-based
Experimental: Culture media were then changed and cells were stimulated with 1 mM dbcAMP and the treatment for 24 to 48 hours. […] The synthesis of 20 —OH progesterone and progesterone in Y1 and MA-10 cell media respectively were measured by RIA (Brown et al., 1992). H295R human adrenal tumor cells were seeded in 48-well plates at 10^5 cells/well and incubated for 24 hours. […] At the end of the incubation time period, cells were treated with 1 mM dbcAMP for 48 hours. Cortisol levels in the media were determined by radioimmunoassay as previously described (Amri et al., 1996).

With `CCN(CC)CCOC(=O)c1ccc(N)cc1` [SP01, procaine HCl] as the compound, how does the “effect on dbcAMP-stimulated PKA activity” value (PKA) read?
The value was “no significant effect”.

What about the “inhibition of HIV replication” value (HIV-1 IIIB strain) of the same compound?
The value was 75%.

What about the “direct effect on HMG-CoA reductase activity” value (HMG-CoA reductase) of the same compound?
The value was “No direct effect”.

And the HMG-CoA reductase activity (HMG-CoA reductase; 1 μM procaine)?
The HMG-CoA reductase activity was 9.9±0.01 pmol/min/mg protein.

And the HMG-CoA reductase activity (HMG-CoA reductase; 10 μM procaine)?
Its HMG-CoA reductase activity is 10.3±0.6 pmol/min/mg protein.

What about the HMG-CoA reductase activity (HMG-CoA reductase; 100 μM procaine) of the same compound?
The HMG-CoA reductase activity was 10.1±0.1 pmol/min/mg protein.

And the “effect on cell viability (MTT)” value [1]?
Its value is “did not affect MA-10 cell viability”.

And the “effect on dbcAMP-induced progesterone synthesis” value [2]?
The value was “did not affect”.
